“Also recorded” adds a separate entry of the source.
How the values were obtained:
[1] = Moisture sorption/desorption isotherm (TGA study, humidity uptake); assay type: physicochemical
Description: In the TGA study, a weighted amount of compound 10e was treated with increasing amounts of water vapor (increased humidity) and the impact of humidity on the weight of the sample was evaluated.

[2] = system: Lewis Lung Carcinoma cells; experiment: Lewis Lung Carcinoma efficacy study (tumor volume over time); assay type: in vivo; details: single agent, dosed orally twice daily at 50, 100 or 200 mg/kg; C57BL/6 mice implanted with Lewis Lung Carcinoma cells; relative to control
Description: Female C57.Bl/6 mice (n=40) were implanted subcutaneously with 1×10^6 Lewis Lung Carcinoma cells suspended in PBS. The day following implantation, mice were randomized into 4 groups of n=10 mice to receive the following treatments dosed orally twice daily until study end: 1) Vehicle (water); 2) Compound 10 at 50 mg/kg formulated in water; 3) Compound 10 at 100 mg/kg formulated in water; or 4) Compound 10 at 200 mg/kg formulated in water. Tumors were measured three times per week with digital calipers and tumor volumes calculated with the following formula: tumor volume (mm^3)=(a×b^2/2) where ‘b’ is the smallest diameter and ‘a’ is the largest perpendicular diameter. ***P-value <0.001, ****P-value <0.0001 (Two-sided T-test).

[3] = Hydrolysis of the ethanolate in water (NMR in D2O, HPLC-MS); assay type: physicochemical; details: hydrolysis to the open free boronic acid form, compound 10
Description: The rapid conversion of compound 10e to compound 10 in water was confirmed by the similarity of a spectrum of 10e in D2O to a spectrum of 10 in D2O. When a sample of compound 10e was dissolved in D2O and the spectra immediately recorded (elapsed time <5 minutes), the spectra observed is identical to a spectra of compound 10 (the free boronic acid) plus ethanol (1:1 ratio). The spectrum of 10e in D2O was the same at 5 minutes and one hour after sample preparation, indicating the transformation was rapid and complete after a few minutes.
The NMR spectra (D2O) labeled A is compound 10 (free base) prepared from 11 as described in Example 2. The NMR spectra (D2O) labeled B is an analytical sample of compound 10e prepared as described above. The NMR spectra (D2O) labeled C is the sample from spectra B that has been lyophilized and redissolved in D2O.
Upon dissolution in 1:1 water/acetonitrile and immediate injection into an HPLC system, only a single peak is observed. The mass of this peak is consistent with compound 10.

| Compound | hysteresis of sorption and desorption isotherms [1] | hygroscopicity ([1]; as humidity is increased) | observed moisture uptake ([1]; at 90% relative humidity (RH)) | tumor growth (tumor volume over time) [2] | stability under physiological conditions or any other aqueous conditions [3] |
| --- | --- | --- | --- | --- | --- |
| C[C@H](N)C(=O)N1C[C@H](CCCB(O)O)[C@](N)(C(=O)O)C1 [Compound 10] | minimal hysteresis | absorbs increasing amounts of water as the humidity increases; also recorded: hygroscopic | over 70% | slows tumor growth relative to control | – |
| CCOB1CCC[C@H]2CN(C(=O)[C@H](C)N)C[C@@]2(N)C(=O)O1 [Compound 10e, (6aS,9aR)-8-(L-alanyl)-9a-amino-3-ethoxyoctahydro-[1,2]oxaborocino[6,7-c]pyrrol-1(3H)-one] | – | – | – | – | rapidly hydrolyzes |

Reference: US12054501B2, “Compositions and methods for inhibiting arginase activity” (Precision Pharmaceuticals Inc., priority 2016, dated 2024)
